Earlier results on one compound are cited in paper PMC6286156 (Cell Calcium, 2018).

Structures are written as SMILES.

One data set has as its system Ebola. The note with it: mouse, in vivo; cited from earlier work.
Data set [1] deals with NAADP-evoked Ca^2+ signals. The note with it: cited from earlier work.

For `COc1ccc2cc1Oc1ccc(cc1)C[C@H]1c3cc(c(OC)cc3CCN1C)Oc1c(OC)c(OC)cc3c1[C@H](C2)N(C)CC3` [tetrandrine], in the data set with Ebola, the Survival entry is on record as “improved survival”. Also, the “Concentration range acting as TPC pore blocker (in words)” value in data set [1] was “sub-micromolar range”.
